ChEMBL document CHEMBL5325423, “Discovery of 7H-Pyrrolo[2,3-d]pyrimidine Derivatives as potent hematopoietic progenitor kinase 1 (HPK1) inhibitors” (Eur J Med Chem, 2023)

Experiments:
[1] = biological target: T1, Mitogen-activated protein kinase kinase kinase kinase 1 (Homo sapiens, UniProt Q92918); assay: Inhibition of human HPK1 using myelin basic protein and [gamma33P]ATP as substrate incubated for 40 mins in presence of Mg/ATP by radiometric scintillation counting analysis
[2] = biological target: Tyrosine-protein kinase Fyn (Homo sapiens) (UniProt P06241); assay: Inhibition of FYN (unknown origin) assessed as remaining activity at 1 uM relative to control
[3] = biological target: Tyrosine-protein kinase JAK3 (Homo sapiens) (UniProt P52333); assay: Inhibition of JAK3 (unknown origin) assessed as remaining activity at 1 uM relative to control
[4] = biological target: Tyrosine-protein kinase JAK1 (Homo sapiens) (UniProt P23458); assay: Inhibition of JAK1 (unknown origin) assessed as remaining activity at 1 uM relative to control
[5] = biological target: Leucine-rich repeat serine/threonine-protein kinase 2 (Homo sapiens) (UniProt Q5S007); assay: Inhibition of LRRK2 (unknown origin) at 1 uM
[6] = biological target: Insulin-like growth factor 1 receptor (Homo sapiens) (UniProt P08069); assay: Inhibition of IGF-1R (unknown origin) assessed as remaining activity at 1 uM relative to control
[7] = biological target: Tyrosine-protein kinase ABL1 (Homo sapiens) (UniProt P00519); assay: Inhibition of ABL (unknown origin) assessed as remaining activity at 1 uM relative to control
[8] = biological target: ALK tyrosine kinase receptor (Homo sapiens) (UniProt Q9UM73); assay: Inhibition of ALK (unknown origin) assessed as remaining activity at 1 uM relative to control
[9] = biological target: Mitogen-activated protein kinase 10 (Homo sapiens) (UniProt P53779); assay: Inhibition of JNK3 (unknown origin) assessed as remaining activity at 1 uM relative to control
[10] = biological target: Tyrosine-protein kinase JAK2 (Homo sapiens) (UniProt O60674); assay: Inhibition of JAK2 (unknown origin) assessed as remaining activity at 1 uM relative to control
[11] = biological target: Tyrosine-protein kinase receptor UFO (Homo sapiens) (UniProt P30530); assay: Inhibition of AXL (unknown origin) assessed as remaining activity at 1 uM relative to control
[12] = biological target: Leucine-rich repeat serine/threonine-protein kinase 2 (Homo sapiens) (UniProt Q5S007); assay: Inhibition of LRRK2 (unknown origin) assessed as remaining activity at 1 uM relative to control
[13] = biological target: Dual specificity protein kinase TTK (Homo sapiens) (UniProt P33981); assay: Inhibition of TTK (unknown origin) assessed as remaining activity at 1 uM relative to control
[14] = biological target: Tyrosine-protein kinase SYK (Homo sapiens) (UniProt P43405); assay: Inhibition of SYK (unknown origin) assessed as remaining activity at 1 uM relative to control
[15] = biological target: Tyrosine-protein kinase BTK (Homo sapiens) (UniProt Q06187); assay: Inhibition of BTK (unknown origin) assessed as remaining activity at 1 uM relative to control
[16] = biological target: Focal adhesion kinase 1 (Homo sapiens) (UniProt Q05397); assay: Inhibition of FAK (unknown origin) assessed as remaining activity at 1 uM relative to control
[17] = biological target: Receptor-type tyrosine-protein kinase FLT3 (Homo sapiens) (UniProt P36888); assay: Inhibition of FLT3 (unknown origin) assessed as remaining activity at 1 uM relative to control
[18] = biological target: Interleukin-1 receptor-associated kinase 4 (Homo sapiens) (UniProt Q9NWZ3); assay: Inhibition of IRAK4 (unknown origin) assessed as remaining activity at 1 uM relative to control
[19] = biological target: Mitogen-activated protein kinase 9 (Homo sapiens) (UniProt P45984); assay: Inhibition of JNK2 (unknown origin) assessed as remaining activity at 1 uM relative to control
[20] = biological target: ALK tyrosine kinase receptor (Homo sapiens) (UniProt Q9UM73); assay: Inhibition of ALK (unknown origin) at 1 uM
[21] = biological target: T1, Mitogen-activated protein kinase kinase kinase kinase 1; assay: Inhibition of human HPK1 in human Jurkat T cells assessed as increase in anti-human CD3 stimulated IL-2 secretion preincubated for 10 mins followed by anti-human CD3 stimulation and measured after 24 hrs by ELISA; type: cell-based
[22] = biological target: Epidermal growth factor receptor (Homo sapiens) (UniProt P00533); assay: Inhibition of EGFR (unknown origin) assessed as remaining activity at 1 uM relative to control
[23] = biological target: Tyrosine-protein kinase ZAP-70 (Homo sapiens) (UniProt P43403); assay: Inhibition of ZAP70 (unknown origin) assessed as remaining activity at 1 uM relative to control
[24] = biological target: T1, Mitogen-activated protein kinase kinase kinase kinase 1; assay: Inhibition of human HPK1 in anti-human CD3 stimulated human Jurkat T cells assessed as inhibition of SLP76 phosphorylation preincubated for 10 mins followed by anti-human CD3 stimulation and measured after 60 mins by Western blot analysis; type: cell-based
[25] = biological target: Mitogen-activated protein kinase 8 (Homo sapiens) (UniProt P45983); assay: Inhibition of JNK1 (unknown origin) assessed as remaining activity at 1 uM relative to control
[26] = biological target: Serine/threonine-protein kinase PAK 4 (Homo sapiens) (UniProt O96013); assay: Inhibition of PAK4 (unknown origin) assessed as remaining activity at 1 uM relative to control
[27] = biological target: Tyrosine-protein kinase Lck (Homo sapiens) (UniProt P06239); assay: Inhibition of LCK (unknown origin) assessed as remaining activity at 1 uM relative to control
[28] = biological target: Interleukin-1 receptor-associated kinase 4 (Homo sapiens) (UniProt Q9NWZ3); assay: Inhibition of IRAK4 (unknown origin) at 1 uM
[29] = biological target: T1, Mitogen-activated protein kinase kinase kinase kinase 1; assay: Inhibition of wild type HPK1 (unknown origin) using FAM-FPQAAsLPPYFAKKK peptide as substrate in presence of ATP by caliper assay
[30] = biological target: T1, Mitogen-activated protein kinase kinase kinase kinase 1; assay: Inhibition of HPK1 (unknown origin)
[31] = biological target: T1, Mitogen-activated protein kinase kinase kinase kinase 1; assay: Inhibition of human HPK1 in human Jurkat T cells assessed as inhibition of SLP76 phosphorylation

T1 sequence (Q92918 whole entry): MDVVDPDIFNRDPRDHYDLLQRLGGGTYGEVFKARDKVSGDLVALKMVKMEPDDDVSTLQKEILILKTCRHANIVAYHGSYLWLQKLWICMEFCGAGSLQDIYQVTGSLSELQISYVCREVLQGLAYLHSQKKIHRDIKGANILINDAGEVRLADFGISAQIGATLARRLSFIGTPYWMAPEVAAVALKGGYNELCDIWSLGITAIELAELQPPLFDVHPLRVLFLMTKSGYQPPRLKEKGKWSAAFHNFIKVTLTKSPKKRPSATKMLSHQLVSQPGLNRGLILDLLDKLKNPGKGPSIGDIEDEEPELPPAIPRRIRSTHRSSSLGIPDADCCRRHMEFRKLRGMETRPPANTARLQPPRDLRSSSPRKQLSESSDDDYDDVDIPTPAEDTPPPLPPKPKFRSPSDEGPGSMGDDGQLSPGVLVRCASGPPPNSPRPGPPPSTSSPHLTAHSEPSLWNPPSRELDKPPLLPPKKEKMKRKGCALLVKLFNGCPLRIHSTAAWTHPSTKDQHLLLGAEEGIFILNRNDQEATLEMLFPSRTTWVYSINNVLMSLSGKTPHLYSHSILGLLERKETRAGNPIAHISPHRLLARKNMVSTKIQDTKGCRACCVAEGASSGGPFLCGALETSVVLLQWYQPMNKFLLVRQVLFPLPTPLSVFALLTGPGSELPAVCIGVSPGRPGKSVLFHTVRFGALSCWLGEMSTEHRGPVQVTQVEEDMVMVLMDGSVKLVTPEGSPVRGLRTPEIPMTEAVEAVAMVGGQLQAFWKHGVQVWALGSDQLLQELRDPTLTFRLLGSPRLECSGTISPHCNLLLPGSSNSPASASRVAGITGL
Chain of Leucine-rich repeat serine/threonine-protein kinase 2 (Homo sapiens) (Q5S007 whole entry): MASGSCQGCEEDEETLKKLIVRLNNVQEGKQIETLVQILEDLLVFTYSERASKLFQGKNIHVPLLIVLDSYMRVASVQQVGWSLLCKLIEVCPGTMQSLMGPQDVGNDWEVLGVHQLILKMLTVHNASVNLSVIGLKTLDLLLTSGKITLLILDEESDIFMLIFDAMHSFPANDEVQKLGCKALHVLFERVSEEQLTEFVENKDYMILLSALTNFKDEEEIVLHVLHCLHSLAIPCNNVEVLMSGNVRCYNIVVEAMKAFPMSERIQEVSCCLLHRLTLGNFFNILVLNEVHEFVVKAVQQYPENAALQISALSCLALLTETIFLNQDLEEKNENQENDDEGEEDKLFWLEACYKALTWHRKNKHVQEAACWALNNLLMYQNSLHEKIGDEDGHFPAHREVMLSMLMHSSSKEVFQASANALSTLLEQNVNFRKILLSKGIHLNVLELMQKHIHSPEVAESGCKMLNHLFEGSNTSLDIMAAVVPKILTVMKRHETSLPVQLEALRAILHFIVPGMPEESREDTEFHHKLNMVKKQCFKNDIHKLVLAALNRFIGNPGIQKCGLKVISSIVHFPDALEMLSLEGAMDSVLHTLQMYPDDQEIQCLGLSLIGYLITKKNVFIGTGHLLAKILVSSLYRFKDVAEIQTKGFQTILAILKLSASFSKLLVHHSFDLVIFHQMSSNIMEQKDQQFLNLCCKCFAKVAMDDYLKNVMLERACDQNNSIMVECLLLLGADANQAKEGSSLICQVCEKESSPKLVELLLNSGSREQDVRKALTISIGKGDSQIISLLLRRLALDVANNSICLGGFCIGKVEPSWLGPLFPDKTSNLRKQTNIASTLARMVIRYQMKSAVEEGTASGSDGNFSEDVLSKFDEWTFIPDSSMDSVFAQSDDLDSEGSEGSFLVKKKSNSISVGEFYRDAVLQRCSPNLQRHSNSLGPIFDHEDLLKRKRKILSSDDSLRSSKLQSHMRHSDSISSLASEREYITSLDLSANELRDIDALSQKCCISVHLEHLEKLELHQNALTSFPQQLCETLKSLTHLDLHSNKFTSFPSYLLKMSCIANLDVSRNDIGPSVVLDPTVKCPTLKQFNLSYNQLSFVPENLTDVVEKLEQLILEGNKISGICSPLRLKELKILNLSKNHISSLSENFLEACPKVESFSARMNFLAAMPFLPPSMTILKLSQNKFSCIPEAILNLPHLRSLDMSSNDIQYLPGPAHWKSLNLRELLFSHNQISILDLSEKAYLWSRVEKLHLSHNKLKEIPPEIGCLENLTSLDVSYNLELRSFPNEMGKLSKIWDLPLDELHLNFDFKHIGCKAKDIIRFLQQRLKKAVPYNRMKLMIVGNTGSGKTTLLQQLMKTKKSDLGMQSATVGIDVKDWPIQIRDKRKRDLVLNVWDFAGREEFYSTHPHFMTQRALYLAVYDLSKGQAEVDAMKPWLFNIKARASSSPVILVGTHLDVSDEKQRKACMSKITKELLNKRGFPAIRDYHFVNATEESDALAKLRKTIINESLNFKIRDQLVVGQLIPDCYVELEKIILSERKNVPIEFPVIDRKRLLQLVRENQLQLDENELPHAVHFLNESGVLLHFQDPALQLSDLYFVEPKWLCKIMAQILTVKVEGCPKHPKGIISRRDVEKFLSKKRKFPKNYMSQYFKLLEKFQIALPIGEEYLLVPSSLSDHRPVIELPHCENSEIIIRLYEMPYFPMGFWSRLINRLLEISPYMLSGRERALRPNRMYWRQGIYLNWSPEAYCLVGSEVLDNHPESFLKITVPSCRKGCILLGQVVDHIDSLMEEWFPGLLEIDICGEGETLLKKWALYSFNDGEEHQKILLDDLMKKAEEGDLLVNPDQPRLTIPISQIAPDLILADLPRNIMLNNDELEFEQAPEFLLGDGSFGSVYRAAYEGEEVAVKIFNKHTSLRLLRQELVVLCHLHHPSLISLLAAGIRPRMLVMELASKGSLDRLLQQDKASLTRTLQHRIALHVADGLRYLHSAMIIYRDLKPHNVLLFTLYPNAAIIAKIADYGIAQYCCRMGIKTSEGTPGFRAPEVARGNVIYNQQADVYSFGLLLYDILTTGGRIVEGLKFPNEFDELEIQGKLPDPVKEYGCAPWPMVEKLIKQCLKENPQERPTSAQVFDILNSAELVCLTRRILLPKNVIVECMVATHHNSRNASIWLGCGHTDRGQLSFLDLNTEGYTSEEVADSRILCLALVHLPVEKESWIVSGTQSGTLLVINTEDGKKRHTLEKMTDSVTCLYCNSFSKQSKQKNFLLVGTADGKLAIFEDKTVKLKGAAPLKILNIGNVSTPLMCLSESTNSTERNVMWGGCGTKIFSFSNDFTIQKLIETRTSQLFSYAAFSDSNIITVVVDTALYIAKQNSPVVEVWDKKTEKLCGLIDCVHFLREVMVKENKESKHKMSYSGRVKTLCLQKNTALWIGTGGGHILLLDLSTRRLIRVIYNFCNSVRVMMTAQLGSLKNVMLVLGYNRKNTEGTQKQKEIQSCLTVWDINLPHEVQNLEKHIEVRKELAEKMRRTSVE
Chain of ALK tyrosine kinase receptor (Homo sapiens) (Q9UM73 19-1620 limits assumed): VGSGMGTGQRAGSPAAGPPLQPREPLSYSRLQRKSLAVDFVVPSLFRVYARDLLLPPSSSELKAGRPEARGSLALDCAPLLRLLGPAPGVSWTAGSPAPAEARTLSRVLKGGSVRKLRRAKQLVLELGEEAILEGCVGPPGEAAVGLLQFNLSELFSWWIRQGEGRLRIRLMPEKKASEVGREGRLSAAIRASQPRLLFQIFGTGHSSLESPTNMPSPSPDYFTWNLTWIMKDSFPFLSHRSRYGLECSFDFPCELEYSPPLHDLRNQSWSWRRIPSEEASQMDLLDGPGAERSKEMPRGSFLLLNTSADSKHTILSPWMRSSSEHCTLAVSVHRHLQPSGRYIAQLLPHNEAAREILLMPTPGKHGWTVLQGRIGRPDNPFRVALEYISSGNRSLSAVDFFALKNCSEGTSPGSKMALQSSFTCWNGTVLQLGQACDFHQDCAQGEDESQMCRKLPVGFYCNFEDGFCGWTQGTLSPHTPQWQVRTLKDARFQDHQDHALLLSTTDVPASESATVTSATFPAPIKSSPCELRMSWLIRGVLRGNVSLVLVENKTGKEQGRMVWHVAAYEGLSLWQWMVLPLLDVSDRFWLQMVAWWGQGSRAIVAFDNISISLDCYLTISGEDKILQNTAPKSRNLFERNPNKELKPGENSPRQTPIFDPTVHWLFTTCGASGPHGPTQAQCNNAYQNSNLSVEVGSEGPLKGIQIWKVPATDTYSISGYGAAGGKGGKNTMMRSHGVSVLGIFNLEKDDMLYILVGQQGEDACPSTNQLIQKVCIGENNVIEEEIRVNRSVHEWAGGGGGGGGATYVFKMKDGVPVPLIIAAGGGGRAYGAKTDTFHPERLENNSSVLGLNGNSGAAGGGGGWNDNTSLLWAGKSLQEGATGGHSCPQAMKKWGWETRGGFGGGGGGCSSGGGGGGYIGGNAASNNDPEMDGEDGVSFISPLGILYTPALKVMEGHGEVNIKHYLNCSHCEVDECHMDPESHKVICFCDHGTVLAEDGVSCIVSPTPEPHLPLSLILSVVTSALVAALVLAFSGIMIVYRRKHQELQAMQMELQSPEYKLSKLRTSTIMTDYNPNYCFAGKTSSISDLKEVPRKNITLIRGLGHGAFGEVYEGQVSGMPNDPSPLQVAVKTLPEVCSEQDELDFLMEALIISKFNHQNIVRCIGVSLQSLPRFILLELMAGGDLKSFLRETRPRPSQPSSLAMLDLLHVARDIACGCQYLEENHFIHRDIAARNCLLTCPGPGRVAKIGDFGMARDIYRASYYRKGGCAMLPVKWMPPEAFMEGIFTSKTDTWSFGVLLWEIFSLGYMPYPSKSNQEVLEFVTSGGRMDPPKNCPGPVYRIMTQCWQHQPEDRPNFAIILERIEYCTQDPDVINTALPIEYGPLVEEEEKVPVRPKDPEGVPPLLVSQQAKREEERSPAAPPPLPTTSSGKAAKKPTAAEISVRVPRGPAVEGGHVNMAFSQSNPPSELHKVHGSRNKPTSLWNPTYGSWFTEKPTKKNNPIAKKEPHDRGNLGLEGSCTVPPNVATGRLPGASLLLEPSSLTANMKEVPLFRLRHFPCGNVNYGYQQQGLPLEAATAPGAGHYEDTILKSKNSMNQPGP

COc1cc2c(cc1Nc1nc(Nc3ccccc3S(=O)(=O)N(C)C)c3c(-c4ccncc4)c[nH]c3n1)CN(C)CC2
IC50 [1]: 9.5 nM

CCCN(CCC)S(=O)(=O)c1ccccc1Nc1nc(Nc2cc3c(cc2OC)CCN(C)C3)nc2[nH]ccc12
IC50 [1]: 73 nM

COc1ccc(CN(C)C)cc1Nc1nc(Nc2ccccc2S(=O)(=O)N(C)C)c2c(-c3cccnc3)c[nH]c2n1
IC50 [1]: 97.5 nM

COc1cc2c(cc1Nc1nc(Nc3ccccc3Cl)c3cc[nH]c3n1)CN(C)CC2
IC50 [1]: 631 nM

COc1cc2c(cc1Nc1nc(Nc3ccccc3C(C)(C)C)c3cc[nH]c3n1)CN(C)CC2
IC50 [1]: 386 nM

COc1cc2c(cc1Nc1nc(Nc3ccccc3S(=O)(=O)N(C)C)c3c(-c4c(C)noc4C)c[nH]c3n1)CN(C)CC2
IC50 [1]: 42 nM

CN1CCc2cc(Cl)c(Nc3nc(Nc4ccccc4S(=O)(=O)N(C)C)c4c(-c5cccnc5)c[nH]c4n3)cc2C1
Activity [2]: > 50%
Activity [3]: > 50%
Activity [4]: > 50%
inhibition [5]: > 90%
Activity [6]: > 50%
Activity [7]: > 50%
Activity [8]: < 50%
Activity [9]: > 50%
Activity [10]: < 50%
Activity [11]: < 50%
Activity [12]: < 50%
Activity [13]: < 50%
Activity [14]: > 50%
Activity [15]: > 50%
Activity [16]: < 50%
Activity [17]: < 50%
Activity [18]: < 50%
Activity [19]: > 50%
inhibition [20]: > 90%
EC50 [21]: 1390 nM
Activity [22]: > 50%
Activity [23]: > 50%
IC50 [24]: 1210 nM
IC50 [1]: 2 nM
Activity [25]: > 50%
Activity [26]: > 50%
Activity [27]: > 50%
inhibition [28]: > 90%

CN1CCc2ccc(Nc3nc(Nc4ccccc4S(=O)(=O)N(C)C)c4c(-c5cccnc5)c[nH]c4n3)cc2C1
IC50 [1]: 1.5 nM

COc1cc2c(cc1Nc1nc(Nc3ccccc3S(=O)(=O)N3CCCC3)c3cc[nH]c3n1)CN(C)CC2
IC50 [1]: 1.5 nM

COc1cc2c(cc1Nc1nc(Nc3ccccc3S(=O)(=O)N(C)C)c3c(-c4ccoc4)c[nH]c3n1)CN(C)CC2
IC50 [1]: 4 nM

CCN(CC)S(=O)(=O)c1ccccc1Nc1nc(Nc2cc3c(cc2OC)CCN(C)C3)nc2[nH]ccc12
IC50 [1]: 7 nM

COc1cc2c(cc1Nc1nc(Nc3ccccc3F)c3cc[nH]c3n1)CN(C)CC2
IC50 [1]: 640 nM

COc1cc2c(cc1Nc1nc(Nc3ccccc3S(=O)(=O)N3CC(C)(C)C3)c3cc[nH]c3n1)CN(C)CC2
IC50 [1]: 12.5 nM

COc1cc2c(cc1Nc1nc(Nc3ccccc3S(=O)(=O)N(C)C)c3cc[nH]c3n1)CN(C)CC2
IC50 [1]: 2.5 nM

COc1cc2c(cc1Nc1nc(Nc3ccccc3C)c3cc[nH]c3n1)CN(C)CC2
IC50 [1]: 454 nM

COc1cc2c(cc1Nc1nc(Nc3ccccc3S(=O)(=O)N(C)C)c3c(-c4cnn(C)c4)c[nH]c3n1)CN(C)CC2
IC50 [1]: 9 nM

COc1cc2c(cc1Nc1nc(Nc3ccccc3S(=O)(=O)N(C)C)c3c(-c4ccc(N)nc4)c[nH]c3n1)CN(C)CC2
IC50 [1]: 12 nM

COc1cc2c(cc1Nc1nc(Nc3ccccc3S(=O)(=O)N3CCCCC3)c3cc[nH]c3n1)CN(C)CC2
IC50 [1]: 17.5 nM

COc1cc2c(cc1Nc1nc(Nc3ccccc3S(=O)(=O)N3CCOCC3)c3cc[nH]c3n1)CN(C)CC2
IC50 [1]: 349 nM

COc1cc2c(cc1Nc1ncc(Cl)c(Nc3ccccc3P(C)(C)=O)n1)CN(C)CC2
IC50 [29]: < 5 nM

COc1cc2c(cc1Nc1nc(Nc3ccccc3S(=O)(=O)N(C)C)c3c(-c4cccnc4C)c[nH]c3n1)CN(C)CC2
IC50 [1]: 29.5 nM

Cn1cc(Nc2ncc(C3=CCC[C@@H](NC(=O)c4ccccc4)C3)nc2C(N)=O)cn1
IC50 [30]: 86 nM
IC50 [31]: 150 nM

COc1cc2c(cc1Nc1nc(Nc3ccccc3S(=O)(=O)N3CCCC3)c3c(-c4cccnc4)c[nH]c3n1)CN(C)CC2
IC50 [1]: 4.5 nM

COc1cc2c(cc1Nc1nc(Nc3ccccc3S(=O)(=O)N(C)C)c3c(-c4ccn(C)c(=O)c4)c[nH]c3n1)CN(C)CC2
IC50 [1]: 9 nM

CN1CCc2cc(Nc3nc(Nc4ccccc4S(=O)(=O)N(C)C)c4c(-c5cccnc5)c[nH]c4n3)ccc2C1
IC50 [1]: 6 nM

COc1cc2c(cc1Nc1nc(Nc3ccccc3OC)c3cc[nH]c3n1)CN(C)CC2
IC50 [1]: 127 nM

CCOc1cc(Nc2nc(Nc3ccccc3S(=O)(=O)N(C)C)c3c(-c4cccnc4)c[nH]c3n2)ccc1N1CCOCC1
IC50 [1]: 5.5 nM

COc1cc(Nc2nc(Nc3ccccc3S(=O)(=O)N(C)C)c3c(-c4cccnc4)c[nH]c3n2)ccc1N1CCOCC1
IC50 [1]: 4.5 nM

COc1cc2c(cc1Nc1nc(Nc3ccccc3S(=O)(=O)N3CCC3)c3cc[nH]c3n1)CN(C)CC2
IC50 [1]: 1 nM

COc1cc2c(cc1Nc1nc(Nc3ccccc3S(=O)(=O)N3CCC(C)(C)CC3)c3cc[nH]c3n1)CN(C)CC2
IC50 [1]: 356 nM

COc1cc2c(cc1Nc1nc(Nc3ccccc3S(=O)(=O)N(C)C)c3c(-c4cnccc4C)c[nH]c3n1)CN(C)CC2
IC50 [1]: 14 nM

COc1cc2c(cc1Nc1nc(Nc3ccccc3S(=O)(=O)N(C)C)c3c(-c4cccnc4)c[nH]c3n1)CN(C(C)C)CC2
IC50 [1]: 12 nM

COc1cc2c(cc1Nc1nc(Nc3ccccc3S(=O)(=O)N(C)C)c3c(-c4c[nH]nc4C)c[nH]c3n1)CN(C)CC2
IC50 [1]: 3.5 nM

COc1cc2c(cc1Nc1nc(Nc3ccccc3OC(C)C)c3cc[nH]c3n1)CN(C)CC2
IC50 [1]: 84 nM

COc1cc2c(cc1Nc1nc(Nc3ccccc3P(C)(C)=O)c3cc[nH]c3n1)CN(C)CC2
IC50 [1]: 7.5 nM

COc1cc2c(cc1Nc1nc(Nc3ccccc3S(=O)(=O)N(C)C)c3c(-c4ccccc4)c[nH]c3n1)CN(C)CC2
IC50 [1]: > 1000 nM

COc1cc2c(cc1Nc1nc(Nc3ccccc3S(=O)(=O)N3CCC3)c3c(-c4cccnc4)c[nH]c3n1)CN(C)CC2
IC50 [1]: 45 nM

COc1cc(N2CCOCC2)ccc1Nc1nc(Nc2ccccc2S(=O)(=O)N(C)C)c2c(-c3cccnc3)c[nH]c2n1
IC50 [1]: 781 nM

COc1cc2c(cc1Nc1nc(Nc3ccccc3S(=O)(=O)C(C)C)c3cc[nH]c3n1)CN(C)CC2
IC50 [1]: 4.5 nM

CN(C)S(=O)(=O)c1ccccc1Nc1nc(Nc2ccc(N3CCOCC3)cc2)nc2[nH]cc(-c3cccnc3)c12
IC50 [1]: 5 nM

COc1cc2c(cc1Nc1nc(Nc3ccccc3S(=O)(=O)N(C)C)c3c(-c4cn[nH]c4)c[nH]c3n1)CN(C)CC2
IC50 [1]: 3 nM

COc1cc2c(cc1Nc1nc(Nc3ccccc3)c3cc[nH]c3n1)CN(C)CC2
IC50 [1]: 313 nM
